Counter-ions that a name gives are not always drawn. Like-named read-outs stand apart in the source and are kept apart here.
Columns and labels:
MCL-1 = MCL-1 (Homo sapiens (Human), UniProt Q07820, K194A/K197A/R201A); test: Protein-compound interaction assay (SPR assay, Assay 8); type: binding; details: immobilized MBP-MCL-1, 25° C., geometric mean; for koff: read-out: koff; for kon: read-out: kon
Text: Assay 8 Protein-Compound Interaction Assay (SPR Assay)
The ability of the compounds described in this invention to bind to MCL-1 may be determined using surface plasmon resonance (SPR). This allows for the quantification of binding in terms of the equilibrium dissociation constant (KD [M]), as well as association and dissociation rate constants (kon [1/M 1/s] and koff [1/s], respectively). The measurements may be performed using Biacore® T200 or Biacore® S200 instruments (GE Healthcare).
For SPR measurements, recombinant MCL-1 (amino acids 173-321, N-terminal fused to Maltose Binding Protein (MBP) (SEQ ID 1) purchased from Beryllium (Bedford, Mass., USA)) was immobilized using standard amine coupling (Johnsson B et al, Anal Biochem. 1991 Nov. 1; 198(2):268-77). Briefly, carboxymethylated dextran biosensor chips (Series S Sensor Chip CMS, GE Healthcare) were activated with 1-ethyl-3-(3-dimethylaminopropyl)-carbodiimide hydrochloride (EDC) and N-hydroxysuccinimide (NHS) according to the supplier's instructions. MBP-MCL-1 was diluted in 1×PBS-P+ (GE Healthcare) and injected on the activated chip surface. Subsequently, a solution of 1 M ethanolamine-HCl (GE Healthcare) was injected to block unreacted groups, resulting in approximately 400-2500 response units (RU) of immobilized protein. A reference surface was generated by treatment with NHS-EDC and ethanolamine-HCl. Compounds were dissolved in 100% dimethylsulfoxide (DMSO) to a concentration of 10 mM and subsequently diluted in running buffer (1×PBS-P+ (GE Healthcare) [generated from PBS-P+ Buffer 10× (GE Healthcare): 0.2 M phosphate buffer with 27 mM KCl, 1.37 M NaCl and 0.5% Surfactant P20 (Tween 20).], 1% v/v DMSO). For SPR binding-measurements, serial dilutions of compound (eight dilution steps, typically ranging from 0.2 nM up to 1 μM) were injected over immobilized protein. […] Compounds were injected for 60 s followed by a dissociation time of up to 1000 s.
The double-referenced sensorgrams were fit to a simple reversible Langmuir 1:1 reaction mechanism as implemented in the Biacore® T200 and S200 evaluation software (T200 evaluation software version 2.0 and S200 evaluation software version 1.0, GE Healthcare).

MCL1 protein = MCL1 protein (Homo sapiens (Human), UniProt Q07820); test: PIxEL: protein-protein interaction in permeabilized cells by ELISA (Assay 5); type: cell-based; details: permeabilized RKO cells, Biotin-BIM peptide 0.2 μM, serum free; median
Procedure: PI×EL: Protein-Protein Interaction in Permeabilized Cells by ELISA
Most MCL1 protein molecules are localized at the mitochondria outer membrane and sequester pro-apoptotic proteins through binding of their BCL2 homology domain 3 (BH3 domain). MEB buffer (150 mM mannitol, 10 mM HEPES pH 7.5, 50 mM KCl, 20 μM EDTA, 20 μM EGTA, 5 mM potassium succinate, 0.1% protease-free BSA (SIGMA) with low dose digitonin (0.002%) permeabilizes plasma membrane while leaves live mitochondria, where MCL1 maintains its native localization and conformation. Unlike biophysical assays (e.g. TR-FRET) that use truncated recombinant MCL1 protein, this assay uses full length endogenous MCL1 protein at mitochondria outer membrane. It measures the interaction between MCL1 protein and biotinylated BIM BH3 peptide. Compounds can compete with BIM BH3 peptide to bind to MCL1 protein. This serum free assay measures the affinity between MCL1 protein and compound in permeabilized cells, therefore it is not affected by serum binding and cell permeability, and can measure the intrinsic compound affinity.
On day 1, RKO colon cancer cell line cells were plated at 0.8 million cells/ml, 100 μl/well in 96-well flat bottom TC plates (Corning). MCL1 antibody (Santa Cruz sc-12756) were diluted at 200 fold (final concentration 1 μg/ml) in carbonate buffer (Thermo Fisher Scientific, pH 9.6), and 50 μl of diluted antibody was added to each well of high bind ELISA plates (SARSTEDT). Each plate was tapped to make sure liquid covering entire bottom of wells and incubate at 37° C. overnight.
On the second day, MCL1 antibody was washed from ELISA plate. 250 μl Odyssey® Blocking Buffer (PBS) (Li-Cor) was added to each well, incubated at room temperature for at least 1 hour, then washed once with 250 μl 1×PBST. Plates with RKO cells were gently washed once with 100 μl/well PBS, once with 100 μl/well MEB buffer without digitonin, then 100 μl of MEB buffer with 0.002% digitonin was gently added to each well. Compounds were added with HP Tecan compound dispenser in 3-fold dilution series, highest dose 30 μM, 10-dose per compound in quadruplicates. Biotin-BIM peptide (synthesized by 21st Century) was added with HP Tecan compound dispenser at 0.2 μM immediately after the addition of compounds. Plates were rocked for 1 hour at room temperature. Then MEB buffer was aspirated and 50 μl of CHAPS buffer (50 mM Tris-Cl, pH 7.4, 150 mM NaCl, 1% CHAPS, 1 mM EDTA, 1 mM EGTA, cOmplete protease inhibitors (Roche), PhosSTOP (Roche)) was added to each well. Plates were rocked for 1 hour at 4° C., then 45 μl cell lysate from each well were transferred to ELISA plates coated with MCL1 antibody. Plates were incubated overnight in the cold room with rocking.
On the third day, ELISA plates were washed once with 250 μl 1×PBST. Streptavidin-poly-HRP (Thermo Fisher Scientific) was diluted to 20 ng/ml in Odyssey blocking buffer plus 0.05% Triton-100, and 100 μl was added to each well of the ELISA plate. Plates were incubated at room temperature for 1 hour with rocking, then washed with 100 μL 1×PBST for 3 times. Each SuperSignal ELISA Femto Maximum Sensitivity substrate was added to a 50-ml tube and mixed, then 100 μl of mixed substrate was added to each well. Plates were shaken for 1 minute then luminescence was measured by Envision plate reader […]. Signal of each well were normalized by no-compound control and no-cell control. IC50 was calculated using Graphic Pad PRISM software.

A2780 = test: Antiproliferation assay (Assay 7), A2780; type: cell-based; details: CellTiter-Glo, several values per example
Procedure: Assessment of the Anti-Proliferative Effect of Compounds in Different Cell Lines
The impact of compounds on the proliferation of different cell lines was assessed using the CellTiter-Glo® Luminescent Cell Viability reagent from Promega (G7573).
In parallel, cells were plated in a reference (day 0) plate for time zero determination.
Rim wells were excluded. The cells were incubated for 72 hours in a humidified incubator at 37° C. The day 0 plate was measured by adding 30 μL/well of CTG solution (CellTiter-Glo® Luminescent Cell Viability reagent, Promega G7573) to time zero wells in the reference plate followed by a 10 minutes incubation and luminescence reading at 0.1 ms. using the PHERAstar FS microplate reader (BMG Labtech).
After 72 hours incubation, the treated plates were measured in the same way as the day 0 plate mentioned above.

Sequence of MCL-1 (Q07820 whole entry K194A/K197A/R201A, looked up): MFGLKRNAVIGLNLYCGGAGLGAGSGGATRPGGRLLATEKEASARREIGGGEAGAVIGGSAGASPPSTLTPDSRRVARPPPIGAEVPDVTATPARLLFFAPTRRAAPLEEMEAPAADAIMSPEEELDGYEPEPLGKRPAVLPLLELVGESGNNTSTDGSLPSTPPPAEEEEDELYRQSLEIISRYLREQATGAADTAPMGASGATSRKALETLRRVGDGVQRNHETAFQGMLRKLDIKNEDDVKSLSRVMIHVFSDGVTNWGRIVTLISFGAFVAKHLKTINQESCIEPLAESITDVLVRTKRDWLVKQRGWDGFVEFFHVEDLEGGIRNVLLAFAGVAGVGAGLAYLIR
Sequence of MCL1 protein (Q07820 whole entry): as the sequence (Q07820 whole entry K194A/K197A/R201A, looked up) above, with A194K, A197K, A201R counted along it

Row | SMILES | Kd (MCL-1) | koff (MCL-1) | kon (MCL-1) | IC50 (MCL1 protein) | IC50 (A2780; 72 hours, listed as 01, read-out: Antiproli A2780 [M] IC50) | IC50 (A2780; Homo sapiens, A2780, 72 h, read-out: Antiproli A2780 [M] IC50)
1 | CCc1c2c(nn1C)C(CCC1CCOCC1)N(C)S(=O)(=O)CCCn1c(C(=O)O)c(CCCOc3cccc4cc(F)ccc34)c3ccc(Cl)c-2c31 (single isomer, unassigned; enantiomer 1) [Example 61, (+)-4-chloro-3-ethyl-7-{3-[(6-fluoronaphthalen-1-yl)oxy]propyl}-2,14-dimethyl-15-[2-(oxan-4-yl)ethyl]-13,13-dioxo-10,11,12,13,14,15-hexahydro-2H-13lambda^6-pyrazolo[3′,4′:4,5][1,2,8]thiadiazacycloundecino[6,7,8-hi]indole-8-carboxylic acid (Enantiomer 1)] | 1.9 nM | 0.0012 s⁻¹ | 590000 M⁻¹ s⁻¹ | 14.2 nM |  | 
2 | Cc1c2c(nn1C)CN(CCN1CCOCC1)S(=O)(=O)CCCn1c(C(=O)O)c(CCCOc3cccc4ccccc34)c3cccc-2c31 (racemic) [Example 1, (rac)-2,3-Dimethyl-14-[2-(morpholin-4-yl)ethyl]-7-{3-[(naphthalen-1-yl)oxy]propyl}-13,13-dioxo-10,11,12,13,14,15-hexahydro-2H-13λ^6-pyrazolo[3′,4′:4,5][1,2,8]thiadiazacycloundecino-[6,7,8-hi]indole-8-carboxylic acid] |  |  |  |  | > 3.3e-05 M | 3.21e-05 M
3 | Cc1c2c(nn1C)CN(C)S(=O)(=O)CCCn1c(C(=O)O)c(CCCOc3cccc4cc(F)ccc34)c3ccc(F)c-2c31 (single isomer, unassigned; enantiomer 2) [Example 39, (+)-4-fluoro-7-{3-[(6-fluoronaphthalen-1-yl)oxy]propyl}-2,3,14-trimethyl-13,13-dioxo-10,11,12,13,14,15-hexahydro-2H-13lambda^6-pyrazolo[3′,4′:4,5][1,2,8]thiadiazacycloundecino-[6,7,8-hi]indole-8-carboxylic acid (Enantiomer 2)] | 5.3 nM | 0.018 s⁻¹ | 3.4e+06 M⁻¹ s⁻¹ | 506 nM |  | 
4 | CCc1c2c(nn1C)CN(C)S(=O)(=O)CCCn1c(C(=O)O)c(CCCOc3cccc4cc(F)ccc34)c3ccc(Cl)c-2c31 (single isomer, unassigned; enantiomer 1) [Example 36, (+)-4-chloro-3-ethyl-7-{3-[(6-fluoronaphthalen-1-yl)oxy]propyl}-2,14-dimethyl-13,13-dioxo-10,11,12,13,14,15-hexahydro-2H-13lambda^6-pyrazolo[3′,4′:4,5][1,2,8]thiadiazacycloundecino-[6,7,8-hi]indole-8-carboxylic acid (Enantiomer 1)] | 4 nM | 0.004 s⁻¹ | 1e+06 M⁻¹ s⁻¹ | 86.6 nM |  | 
5 | Cc1c2c(nn1C)CN(C1CC1)S(=O)(=O)CCCn1c(C(=O)O)c(CCCOc3cccc4cc(F)ccc34)c3ccc(Cl)c-2c31 (single isomer, unassigned; enantiomer 1) [Example 42, (−)-4-chloro-14-cyclopropyl-7-{3-[(6-fluoro-1-naphthyl)oxy]propyl}-2,3-dimethyl-11,12,14,15-tetrahydro-2H,10H-pyrazolo[3′,4′:4,5][1,2,8]thiadiazacycloundecino[6,7,8-hi]indole-8-carboxylic acid 13,13-dioxide N-diethylamine salt (Enantiomer 1)] | 7.6 nM | 0.016 s⁻¹ | 2.1e+06 M⁻¹ s⁻¹ | 157 nM |  | 

Further molecules by falling IC50 (MCL1 protein), results first:

Row | Kd (MCL-1) | koff (MCL-1) | kon (MCL-1) | IC50 (MCL1 protein) | IC50 (A2780; 72 hours, listed as 01, read-out: Antiproli A2780 [M] IC50) | IC50 (A2780; Homo sapiens, A2780, 72 h, read-out: Antiproli A2780 [M] IC50) | SMILES
6 | 3.6 nM | 0.008 s⁻¹ | 2.2e+06 M⁻¹ s⁻¹ | 552 nM |  |  | CCc1c2c(nn1C)CN(C)S(=O)(=O)CCCn1c(C(=O)O)c(CCCOc3cccc4cc(F)ccc34)c3ccc(F)c-2c31 (single isomer, unassigned; enantiomer 1) [Example 8, (+)-3-Ethyl-4-fluoro-7-{3-[(6-fluoronaphthalen-1-yl)oxy]propyl}-2,14-dimethyl-13,13-dioxo-10,11,12,13,14,15-hexahydro-2H-13λ^6-pyrazolo[3′,4′:4,5][1,2,8]thiadiazacycloundecino-[6,7,8-hi]indole-8-carboxylic acid (Enantiomer 1)]
7 | 2.8 nM | 0.016 s⁻¹ | 5.6e+06 M⁻¹ s⁻¹ | 201 nM |  |  | Cc1c2c(nn1C)C(CCN1CCOCC1)N(C)S(=O)(=O)CCCn1c(C(=O)O)c(CCCOc3cccc4ccccc34)c3cccc-2c31 (single isomer, unassigned; enantiomer 2) [Example 46, 2,3,14-trimethyl-15-[2-(morpholin-4-yl)ethyl]-7-{3-[(naphthalen-1-yl)oxy]propyl}-13,13-dioxo-10,11,12,13,14,15-hexahydro-2H-13lambda^6-pyrazolo[3′,4′:4,5][1,2,8]thiadiazacycloundecino[6,7,8-hi]indole-8-carboxylic acid N-ethylethanamine Salt (Enantiomer 2)]
8 |  |  |  | 22 nM |  |  | CCc1c2c(nn1C)C(CCC1CCOCC1)N(C)S(=O)(=O)CCCn1c(C(=O)O)c(CCCOc3cccc4cc(F)ccc34)c3ccc(Cl)c-2c31 (single isomer, unassigned; enantiomer 3) [Example 63, (+)-4-chloro-3-ethyl-7-{3-[(6-fluoronaphthalen-1-yl)oxy]propyl}-2,14-dimethyl-15-[2-(oxan-4-yl)ethyl]-13,13-dioxo-10,11,12,13,14,15-hexahydro-2H-13lambda^6-pyrazolo[3′,4′:4,5][1,2,8]thiadiazacycloundecino[6,7,8-hi]indole-8-carboxylic acid (Enantiomer 3)]
